Measurements: US10856562B2, “Flavor composition and edible compositions containing same” (MARS, INCORPORATED, priority 2013, dated 2020)
Square brackets hold non-standard residues; d marks the D form. Ends that are not written are not given here. pGlu = O=C1CC[C@@H](C(=O)O)N1

Legend:
panelists [1] = experiment: Degree of Difference (DOD) of test rice from control rice; format: in vivo, human; design: Degree of Difference in rice: scale not given here; details: for Degree of Difference in rice: difference from Control; for Degree of Difference in rice / DOD from Control: rice; for DOD from Control: scale 0.0 to 10.0
Excerpt: The present example describes the evaluation of the descriptive profile of pGlu-Cys (identified as “FE-35”), pGlu-Cys-Gly (identified as “FE-36”), pGlu-Cys-Cys (identified as “FE-37”), pGlu-Cys-Val (identified as “FE-38”) and pGlu-Val-Cys (identified as “UE-30”) peptides of the present application. An objective of the study was to understand the efficacy of flavor enhancer compounds FE-35, FE-36, FE-37, FE-38 and UE-30 in increasing concentrations both in solution and in rice, and to determine a Degree of Difference (DOD) score between a control rice sample (which includes NaCl, and no flavor composition peptide) and the test rice samples (with added flavor composition peptides at increasing concentrations).

panelists [2] = experiment: Consensus attribute scores of flavor enhancers in Uncle Ben's Garden Vegetable Ready rice; format: in vivo, human; design: key to Cooked White Rice / Vegetable Oil / Vegetable Complex / Cooked Green Vegetable / Cooked Corn / Sweet (BASIC TASTES) / Salt (BASIC TASTES) / Mouthdrying (Texture) / Residual Mouthcoating (Texture) / Total Aromatics / Bitter (BASIC TASTES): 15-point scale, 0 = none, 15 = very strong; details: for Black Pepper / Cooked Corn / Cooked Green Vegetable / Cooked White Rice / Dehydrated onion/garlic / HVP/Brothy / Mineral/Flint / Mouthdrying (Texture) / Residual Mouthcoating (Texture) / Salt (BASIC TASTES) / Salt Burn (Chemical Feeling Factors) / Sweet (BASIC TASTES) / Total Aromatics / Umami (Chemical Feeling Factors) / Vegetable Complex / Vegetable Oil: rice
Method: Descriptive attributes (e.g., taste, flavor and chemical feeling factors) of three use levels of pGlu-Cys (FE-35), pGlu-Cys-Gly (FE-36), pGlu-Cys-Cys (FE-37), pGlu-Cys-Val (FE-38) and pGlu-Val-Cys (UE-30) flavor composition peptides were determined. The three use levels were as follows: 1.0 ppb, 10.0 ppb and 100.0 ppb.
Data was collected for the attributes of the product in-mouth for the use levels according to the following protocol: • The samples were analyzed for flavor by six to nine members of a panel, trained and experienced in flavor evaluation using the Spectrum™ method. Samples were evaluated across multiple panel sessions. • The strength of each attribute was rated on a 15-point scale, where 0=none and 15=very strong. • This scale incorporates the ability to use tenths of a point and therefore has the potential of 150 scale differentiations. • The scale may be expanded beyond 15 points to include extreme ratings if necessary.
Preparation of Rice Samples • Each flavor enhancer was tested in Uncle Ben's Garden Vegetable Ready rice matrix at 3 different concentrations: 1 ppb, 10 ppb and 100 ppb. A total of 15 points with flavor enhancers were prepared for sensory evaluation. Additionally, 15 control samples were prepared. Each point had 2 samples (test and control) and was made from one pouch of rice. • Directions to prepare the solutions: • The 15 ready- to eat pouches were microwaved according to the procedure found on the back of the pouch: (1) squeeze pouch to separate rice, (2) tear two inches to vent, (3) heat on High for 90 seconds and (4) remove from microwave using COOL TOUCH area on untorn side. • From each pouch 124.75 g (test sample) and 99.8 g (control) were weighed out. The test sample had the flavor enhancer and/or salt. The control sample only had salt added. • The flavor enhancer and/or salt (non-iodized salt) were weighed in a soufflé cup. The weighed amount of flavor enhancer and/or salt was added to the sub-sampled rice. The rice was stirred and mixed to evenly distribute the salt added. • Some rice was placed back into the soufflé cup, sealed, and the cup was shook to get the flavor enhancer and/or salt that may have been stuck on the walls of the soufflé cup. After shaking the soufflé cup, the rice was added back to the original sub-sampled rice and stirred/mixed again. • Each sample (test and control) was microwaved for another 30 seconds (or until warm) to ensure that the salts/compounds were going completely into the solutions. • All samples (test and control) were tasted at the same temperature. • Each test sample had 0.2% NaCl added and flavor enhancers at the specified concentrations.
A summary of the concentrations of NaCl and flavor composition peptides in the rice samples is described in table 23. The first value of each cell represents a single sample amount of an ingredient in milligrams, and the second number in parenthesis is a doubling of the ingredient (in grams) for use in a doubled size sample.
The panelists evaluated each sample for the attributes described by table 25.

[pGlu]-Val-Cys [UE-30]
Whether consumers notice a difference between the Control and test rice (DOD) (panelists [1]; 1 ppb): Consumers may or may not notice a difference | Whether consumers notice a difference between the Control and test rice (DOD) (panelists [1]; 10 and 100 ppb): Consumers will likely notice a difference | Degree of Difference in rice (panelists [1]; 1.0 ppb): 4.5 | Degree of Difference in rice (panelists [1]; 10.0 ppb): 5.0 | Degree of Difference in rice (panelists [1]; 100.0 ppb): 5.0 | DOD from Control (panelists [1]; 1.0 ppb (5 ppm)): 4.5 | DOD from Control (panelists [1]; 10.0 ppb (50 ppm)): 5.0 | DOD from Control (panelists [1]; 100 ppb (50 ppm)): 5.0 | Mouthdrying in rice (panelists [2]; 10 and 100 ppb): low mouthdrying | Cooked green vegetable in rice compared to the Control (panelists [2]; all samples (1, 10, 100 ppb)): low level of cooked green vegetable | Salt burn feeling factor in rice compared to the Control (panelists [2]; all samples (1, 10, 100 ppb)): higher | Salt in rice compared to the Control (panelists [2]; all samples (1, 10, 100 ppb)): saltier than the Control | Umami feeling factor in rice compared to the Control (panelists [2]; all samples (1, 10, 100 ppb)): higher | Black Pepper (panelists [2]; 1.0 ppb (5 ppm)): 1.3 | Cooked Corn (panelists [2]; 1.0 ppb (5 ppm)): 0.8 | Cooked Green Vegetable (panelists [2]; 1.0 ppb (5 ppm)): 0.8 | Cooked White Rice (panelists [2]; 1.0 ppb (5 ppm)): 3.0 | Dehydrated onion/garlic (panelists [2]; 1.0 ppb (5 ppm)): 1.0 | HVP/Brothy (panelists [2]; 1.0 ppb (5 ppm)): 1.5 | Mineral/Flint (panelists [2]; 1.0 ppb (5 ppm)): 0.0 | Mouthdrying (Texture) (panelists [2]; 1.0 ppb (5 ppm)): 0.0 | Residual Mouthcoating (Texture) (panelists [2]; 1.0 ppb (5 ppm)): 1.0 | Salt (BASIC TASTES) (panelists [2]; 1.0 ppb (5 ppm)): 15.0 | Salt Burn (Chemical Feeling Factors) (panelists [2]; 1.0 ppb (5 ppm)): 1.0 | Sweet (BASIC TASTES) (panelists [2]; 1.0 ppb (5 ppm)): 3.0 | Total Aromatics (panelists [2]; 1.0 ppb (5 ppm)): 6.8 | Umami (Chemical Feeling Factors) (panelists [2]; 1.0 ppb (5 ppm)): 1.5 | Vegetable Complex (panelists [2]; 1.0 ppb (5 ppm)): 1.5 | Vegetable Oil (panelists [2]; 1.0 ppb (5 ppm)): 0.8 | Black Pepper (panelists [2]; 10.0 ppb (50 ppm)): 1.5 | Cooked Corn (panelists [2]; 10.0 ppb (50 ppm)): 1.0 | Cooked Green Vegetable (panelists [2]; 10.0 ppb (50 ppm)): 1.0 | Cooked White Rice (panelists [2]; 10.0 ppb (50 ppm)): 3.0 | Dehydrated onion/garlic (panelists [2]; 10.0 ppb (50 ppm)): 1.0 | HVP/Brothy (panelists [2]; 10.0 ppb (50 ppm)): 1.5 | Mineral/Flint (panelists [2]; 10.0 ppb (50 ppm)): 0.5 | Mouthdrying (Texture) (panelists [2]; 10.0 ppb (50 ppm)): 1.8 | Residual Mouthcoating (Texture) (panelists [2]; 10.0 ppb (50 ppm)): 1.0 | Salt (BASIC TASTES) (panelists [2]; 10.0 ppb (50 ppm)): 15.0 | Salt Burn (Chemical Feeling Factors) (panelists [2]; 10.0 ppb (50 ppm)): 0.8 | Sweet (BASIC TASTES) (panelists [2]; 10.0 ppb (50 ppm)): 3.5 | Total Aromatics (panelists [2]; 10.0 ppb (50 ppm)): 6.8 | Umami (Chemical Feeling Factors) (panelists [2]; 10.0 ppb (50 ppm)): 2.0 | Vegetable Complex (panelists [2]; 10.0 ppb (50 ppm)): 1.8 | Vegetable Oil (panelists [2]; 10.0 ppb (50 ppm)): 0.8 | Black Pepper (panelists [2]; 100 ppb (50 ppm)): 1.5 | Cooked Corn (panelists [2]; 100 ppb (50 ppm)): 1.0 | Cooked Green Vegetable (panelists [2]; 100 ppb (50 ppm)): 1.0 | Cooked White Rice (panelists [2]; 100 ppb (50 ppm)): 3.0 | Dehydrated onion/garlic (panelists [2]; 100 ppb (50 ppm)): 1.0 | HVP/Brothy (panelists [2]; 100 ppb (50 ppm)): 1.5 | Mineral/Flint (panelists [2]; 100 ppb (50 ppm)): 0.5 | Mouthdrying (Texture) (panelists [2]; 100 ppb (50 ppm)): 1.5 | Residual Mouthcoating (Texture) (panelists [2]; 100 ppb (50 ppm)): 1.5 | Salt (BASIC TASTES) (panelists [2]; 100 ppb (50 ppm)): 16.0 | Salt Burn (Chemical Feeling Factors) (panelists [2]; 100 ppb (50 ppm)): 1.3 | Sweet (BASIC TASTES) (panelists [2]; 100 ppb (50 ppm)): 3.5 | Total Aromatics (panelists [2]; 100 ppb (50 ppm)): 6.8 | Umami (Chemical Feeling Factors) (panelists [2]; 100 ppb (50 ppm)): 3.0 | Vegetable Complex (panelists [2]; 100 ppb (50 ppm)): 1.8 | Vegetable Oil (panelists [2]; 100 ppb (50 ppm)): 0.5
